Patent US10060189B2, “Hexadecene synthetic drilling fluid with improved environmental properties” (priority 2014, dated 2018)

Tests used:
Density = type: physicochemical
Pour point (ASTM D97) = type: physicochemical
Excerpt: The phrase “pour point” refers to the lowest temperature at which a fluid will pour or flow. (See, e.g., ASTM International Standard Test Method D97). The results are reported in degrees Celsius. Many commercial base oils have specifications for pour point. When base oils have low pour points, the base oils are also likely to have other good low temperature properties, such as low cloud point, and low cold flow viscosity.

[1] = Kinematic viscosity (ASTM D445-06); type: physicochemical
Description: The phrase “kinematic viscosity” refers to a measurement of the resistance to the flow of a fluid. Many base oils, drilling fluid compositions made from them, and the correct operation of equipment depends upon the appropriate viscosity of the fluid being used. Kinematic viscosity is determined by ASTM D445-06. The results are reported in mm^2/s or centistoke. The term “centistoke,” abbreviated “cSt,” is a unit for kinematic viscosity of a fluid (e.g., a drilling fluid), wherein 1 centistoke equals 1 millimeter squared per second (1 cSt=1 mm^2/s). It is also the ratio of the dynamic viscosity of a fluid to the fluid density. See, e.g., ASTM Standard Guide and Test Methods D 2270-04, D 445-06, D 6074, and D 2983.

[2] = 275-day anaerobic biodegradation test (modified ISO 11734)
Excerpt: The term “biodegradation rate” as used herein for drilling fluids and drill cuttings is in connection with the method for performing the 275-day anaerobic biodegradation test and is defined in Federal Register, Part IV Environmental Protection Agency, 40 CFR Parts 9 and […] entitled “Effluent Limitations Guidelines and New Source Performance Standards for the Oil and Gas Extraction Point Source Category”, Fed. Reg. Vol. 66, No. 14, Jan. 22, 2001, Appendix 4 to Subpart A of Part 435, incorporated herein by reference. The 275-day anaerobic biodegradation test described in Appendix 4 to Subpart A of Part 435 is based on a modification of ISO Standard No. 11734:1995 (also incorporated herein by reference) for use in a marine environment.

Leptocheirus plumulosus = experiment: 10-day sediment toxicity test (EPA Method 1644); type: in vivo
Excerpt: The term “sediment toxicity” as used herein for drilling fluids and drill cuttings refers to EPA Method 1644: “Method for Conducting a Sediment Toxicity Test with Leptocheirus plumulosus and Non-Aqueous Drilling Fluids or Synthetic-Based Drilling Muds” and sediment preparation procedures specified in EPA Method 1646. EPA Method 1644 is published in “Analytic Methods for the Oil and Gas Extraction Point Source Category.” The 10-day Leptocheirus plumulosus toxicity test characterizing the sediment toxicity according to BAT (“Best Available Technology Economically Achievable) effluent limitations and NSPS (“New Source Performance Standards”) means the concentration (milligrams/kilogram dry sediment) of the base fluid in sediment that is lethal to 50 percent of the Leptocheirus plumulosus test organisms exposed to that concentration of the base fluids after ten days of constant exposure. The test is defined in ASTM Standard No. E1367-03 (2008) which is incorporated herein by reference.

Flash point = type: physicochemical

C=CCCCCCCCCCCCCCC [1-hexadecene]
Density (Density): 0.785 g/cc | Pour Point (Pour point (ASTM D97); Table 2 and text): 4 °C | Pour Point (Pour point (ASTM D97); Table 2 and text, listed as 1-hexadecene): +4 °C | Pour Point (Pour point (ASTM D97); Table 3, blends by ratio C16 unbranched isomerized olefin to 1-hexadecene): 4 deg C. | Depression in Pour Point Compared to 1-hexadecene (Pour point (ASTM D97); Table 3, compared to 1-hexadecene): 0 deg C. | Kinematic Viscosity at 40° C. [1]: 2.4 cSt | 275 Day Anaerobic Biodegradation % Compliance Ratio (Ref Fluid/Test Fluid) ([2]; 275 day, ratio reference fluid/test fluid, <1 passes): 0.8 | EPA requirement in the 275 day anaerobic biodegradation test ([2]; versus C1618 IO standard): consistently passes | Sediment Toxicity L. plumulosus 10 day LC50 Compliance Ratio (Ref Fluid/Test Fluid) (Leptocheirus plumulosus; 10 day, ratio reference fluid/test fluid, <1 passes): 0.35 | EPA requirement in the 10-day sediment toxicity test (Leptocheirus plumulosus; in vivo): consistently passes | Flash Point (Flash point): 125 °C
